Results from publication PMC8966664 (Frontiers in Pharmacology, 2022).

How the values were obtained:
Type in all cases: in vivo, Sprague Dawley rats
[1] = test system: RTS-induced liver damage; test: Histological examination (H&E) and scoring of liver damage, modified DeLeve's system; parameters: key to Central vein endothelial damage / Sinusoidal hemorrhage / Sinusoidal dilation / Coagulative necrosis / Apoptotic bodies / Subendothelial fibrosis / Sinusoid fibrosis / Subendothelial hemorrhage: 0-absent; 1-mild; 2-moderate; 3-severe; conditions: rats
Protocol: (§1) EX and GA were dissolved in distilled water at 37°C for oral administration with the dosage of EX and GA as 500 mg/kg and 50 mg/kg. […] RTS was given following the last dose of distilled water/GA/EX. Detailed dosage regimens are described in Supplementary Figure S2. All rats were sacrificed at 48 h after the last dosing. Serum and liver samples were collected and stored at −80°C until use.
The largest lobe of the liver was sliced, fixed in 10% buffered-neutral formalin for 24 h, and embedded in wax. Sections of 5 µm in thickness were subjected to hematoxylin and eosin staining before being examined. Liver injury (necrosis, endothelial cell damage, and hemorrhage) was evaluated with a LEICA DM5000B Microscope (Leica, Heidelberg, Germany).
Protective effects of EX and GA on RTS-induced hepatotoxicity were also evaluated by histopathological examination. […] The damage of sinusoidal endothelial cells was further measured by the immunofluorescence of RECA-1. […] The degrees of hemorrhage, sinusoidal dilation, and necrosis were assessed and scored (Table 2) according to a modified DeLeve’s system ([Deleve et al., 1999]) as summarized in Supplementary Table S3.

[2] = test system: sinusoidal endothelial cells; test: Immunofluorescence of RECA-1 in liver sections; conditions: rats; EX or GA treated groups + RTS
Protocol: as §1
The largest lobe of the rat liver was sliced, cold-embedded in Tissue-Tek OCT compound, and processed for immunohistochemistry according to the Abcam IHC frozen sections staining protocol. The tissue slices were incubated with rat endothelial cell antigen (RECA)-1 antibody and Alexa Fluor 488-conjugated goat anti-mouse IgG, and then stained with DAPI and observed under Olympus FluoViewTM FV1000 confocal microscope.

[3] = test system: pyrrole-protein adducts; test: Formation of pyrrole-protein adducts in liver and serum/plasma of RTS-treated rats
Protocol: as §1
The pyrrole-protein adducts were measured according to our previously developed method ([Lin et al., 2011]; [Ruan et al., 2014]). Briefly, 50 mg liver or 100 µL serum/plasma was mixed with acetone and centrifuged at 900 x g for 10 min. The precipitated protein was treated with silver nitrate (20 mg/ml) in ethanol containing 5% trifluoroacetic acid to release pyrrole moiety from the pyrrole-protein adducts. After centrifugation, an aliquot of the supernatant was incubated with 4-dimethylaminobenzaldehyde (20 mg/ml) at 56°C for 10 min. The mixture was filtered and subjected to LC-MS/MS analysis. 7,9-diGS-DHP was used as a standard with a concentration ranging from 0.2 to 2000 nM and underwent the same preparation process to construct a calibration curve. […] After centrifuging at 20,000 x g for 30 min, the supernatants were collected and analyzed by LC-MS/MS according to our previously developed methods ([Ma et al., 2019]; [He et al., 2021a]; [Ma et al., 2021]).
The LC-MS/MS analysis was performed on an Agilent 6460 Triple Quadrupole LC/MS System using a Waters Acquity BEH C18 column (2.1 × 100 mm, […]). For the detection of pyrrole-protein adducts, the mobile phase of water containing 0.1% formic acid (A) and acetonitrile containing 0.1% formic acid (B) was used with a gradient elution as follows: 0–5 min, 35–95% B; 5.5–6 min, 95–35% B. The flow rate was 0.3 ml/min. The injection volume was 3 μL. […] The injection volume was 5 µL. The mass spectrometer was operated in multiple reactions monitoring for data acquisition.

[4] = multiple dose (EX 500 mg/kg/day or GA 50 mg/kg/day, 5 consecutive days) + RTS 40 mg/kg, 48 h after last dosing
[5] = single dose (EX 500 mg/kg or GA 50 mg/kg) + RTS 40 mg/kg, 48 h after last dosing
[6] = multiple treatment (EX 500 mg/kg or GA 50 mg/kg) + RTS
[7] = single treatment (EX 500 mg/kg or GA 50 mg/kg) + RTS

Question: What does the source list for CC1(C)[C@@H](O)CC[C@]2(C)[C@H]3C(=O)C=C4[C@@H]5C[C@@](C)(C(=O)O)CC[C@]5(C)CC[C@@]4(C)[C@]3(C)CC[C@@H]12 [GA, 18β-glycyrrhetinic acid]?
Answer: Apoptotic bodies ([1]; EX, GA or RTS alone): 0; Central vein endothelial damage ([1]; EX, GA or RTS alone): 0; Coagulative necrosis ([1]; EX, GA or RTS alone): 0; Overall (sum of the scores from all individual parameters) ([1]; EX, GA or RTS alone): 0; Sinusoid fibrosis ([1]; EX, GA or RTS alone): 0; Sinusoidal dilation ([1]; EX, GA or RTS alone): 0; Sinusoidal hemorrhage ([1]; EX, GA or RTS alone): 0; Subendothelial fibrosis ([1]; EX, GA or RTS alone): 0; Subendothelial hemorrhage ([1]; EX, GA or RTS alone): 0; RTS-induced hemorrhage and necrosis ([1]; both single and multiple doses + RTS): significantly ameliorated; Apoptotic bodies [1, 4]: 0; Central vein endothelial damage [1, 4]: 1; Coagulative necrosis [1, 4]: 0; Overall (sum of the scores from all individual parameters) [1, 4]: 2-5; Sinusoid fibrosis [1, 4]: 0; Sinusoidal dilation [1, 4]: 1-2; Sinusoidal hemorrhage [1, 4]: 0-1; Subendothelial fibrosis [1, 4]: 0; Subendothelial hemorrhage [1, 4]: 0-1; Apoptotic bodies [1, 5]: 0; Central vein endothelial damage [1, 5]: 1; Coagulative necrosis [1, 5]: 1; Overall (sum of the scores from all individual parameters) [1, 5]: 6-7; Sinusoid fibrosis [1, 5]: 0; Sinusoidal dilation [1, 5]: 2; Sinusoidal hemorrhage [1, 5]: 1; Subendothelial fibrosis [1, 5]: 0; Subendothelial hemorrhage [1, 5]: 1-2; histopathological examination of liver ([1]; substance alone): No obvious liver damage; RTS-induced damage of sinusoids (RECA-1 immunofluorescence) [2]: significantly less; reduction of pyrrole-protein adducts in liver [3, 6]: 32.5%; reduction of pyrrole-protein adducts in plasma [3, 6]: 56.5%; reduction of pyrrole-protein adducts in liver [3, 7]: 30.3%; reduction of pyrrole-protein adducts in plasma [3, 7]: 50.8%
